Species on record: Rattus norvegicus
Experiment: Open TG-GATES - Regimen: Daily Repeat
Assay type: toxicity, organism-based, Sprague-Dawley
Set-up: regimen Daily Repeat, gender Male, age 6 weeks
Conditions: in vivo, po, route gavage; for APTT / Bas / Eos / Fbg / Hb / Ht / Lym / MCH / MCHC / MCV / Mono / Neu / PT / Plat / RBC / Ret / WBC: tissue Blood; for A/G / ALP / ALT / AST / BUN / CRE / Ca / Cl / DBIL / GLC / IP / K / LDH / Na / PL / RALB / TBIL / TC / TG / TP / gamma-GTP: tissue Plasma
[1] = 30 mg/kg, 72 h, dose level Middle, time 3 day
[2] = 30 mg/kg, […], dose level Middle, time 7 day
[3] = 30 mg/kg, […], dose level Middle, time 14 day
[4] = 30 mg/kg, […], dose level Middle, time 28 day
[5] = 100 mg/kg, 72 h, dose level High, time 3 day
[6] = 100 mg/kg, […], dose level High, time 7 day
[7] = 100 mg/kg, […], dose level High, time 14 day
[8] = 100 mg/kg, […], dose level High, time 28 day

Cn1cc[nH]c1=S [METHIMAZOLE]
TERMINAL_BW [1]: 217 g
APTT [1]: 20.8 s
Bas [1]: 0%
Eos [1]: 1%
Fbg [1]: 340.6 mg/dL
Hb [1]: 14 g/dL
Ht [1]: 39.7%
Lym [1]: 84%
MCH [1]: 21.6 pg
MCHC [1]: 35.2%
MCV [1]: 61.2 fL
Mono [1]: 2%
Neu [1]: 12.8%
PT [1]: 16.5 s
Plat [1]: 131.6 x10_4/uL
RBC [1]: 648.8 x10_4/ul
Ret [1]: 5.4%
WBC [1]: 83.8 x10_2/uL
A/G [1]: 1.2
ALP [1]: 1643.6 IU/L
ALT [1]: 41.2 IU/L
AST [1]: 61 IU/L
BUN [1]: 14.6 mg/dL
CRE [1]: 0.1 mg/dL
Ca [1]: 11 mg/dL
Cl [1]: 107 meq/L
DBIL [1]: 0.002 mg/dL
GLC [1]: 178.4 mg/dL
IP [1]: 6.6 mg/dL
K [1]: 4.4 meq/L
LDH [1]: 260.2 IU/L
Na [1]: 142.4 meq/L
PL [1]: 173 mg/dL
RALB [1]: 3.3 g/dL
TBIL [1]: 0.012 mg/dL
TC [1]: 94 mg/dL
TG [1]: 132.8 mg/dL
TP [1]: 5.9 g/dL
gamma-GTP [1]: 1.2 IU/L
TERMINAL_BW [2]: 231.6 g
TERMINAL_BW [3]: 256 g
TERMINAL_BW [4]: 282.7 g
APTT [2]: 20.9 s
Bas [2]: 0%
Eos [2]: 1%
Fbg [2]: 335.6 mg/dL
Hb [2]: 15.1 g/dL
Ht [2]: 41.3%
Lym [2]: 83.6%
MCH [2]: 22.3 pg
MCHC [2]: 36.7%
MCV [2]: 60.7 fL
Mono [2]: 2%
Neu [2]: 12.8%
PT [2]: 16.9 s
Plat [2]: 122.3 x10_4/uL
RBC [2]: 680 x10_4/ul
Ret [2]: 3.7%
WBC [2]: 90.9 x10_2/uL
APTT [3]: 21.6 s
Bas [3]: 0%
Eos [3]: 0.2%
Fbg [3]: 295 mg/dL
Hb [3]: 14.6 g/dL
Ht [3]: 41.6%
Lym [3]: 89%
MCH [3]: 20.2 pg
MCHC [3]: 35%
MCV [3]: 57.6 fL
Mono [3]: 1%
Neu [3]: 8.4%
PT [3]: 17.5 s
Plat [3]: 109.2 x10_4/uL
RBC [3]: 721.2 x10_4/ul
Ret [3]: 1.6%
WBC [3]: 89.2 x10_2/uL
APTT [4]: 21.4 s
Bas [4]: 0%
Eos [4]: 0.8%
Fbg [4]: 290.6 mg/dL
Hb [4]: 15.4 g/dL
Ht [4]: 42.4%
Lym [4]: 84.4%
MCH [4]: 19.3 pg
MCHC [4]: 36.2%
MCV [4]: 53.3 fL
Mono [4]: 2%
Neu [4]: 12.2%
PT [4]: 17.4 s
Plat [4]: 90.1 x10_4/uL
RBC [4]: 796 x10_4/ul
Ret [4]: 1%
WBC [4]: 91.7 x10_2/uL
A/G [2]: 1.1
ALP [2]: 1563.2 IU/L
ALT [2]: 34.4 IU/L
AST [2]: 57 IU/L
BUN [2]: 17.2 mg/dL
CRE [2]: 0.2 mg/dL
Ca [2]: 10.7 mg/dL
Cl [2]: 108 meq/L
DBIL [2]: 0.002 mg/dL
GLC [2]: 166.8 mg/dL
IP [2]: 6.7 mg/dL
K [2]: 4.2 meq/L
LDH [2]: 248.8 IU/L
Na [2]: 141.8 meq/L
PL [2]: 169.4 mg/dL
RALB [2]: 3.2 g/dL
TBIL [2]: 0.002 mg/dL
TC [2]: 97 mg/dL
TG [2]: 105 mg/dL
TP [2]: 6.3 g/dL
gamma-GTP [2]: 1 IU/L
A/G [3]: 1.1
ALP [3]: 1519.4 IU/L
ALT [3]: 31.2 IU/L
AST [3]: 48 IU/L
BUN [3]: 22.2 mg/dL
CRE [3]: 0.2 mg/dL
Ca [3]: 10.8 mg/dL
Cl [3]: 106.4 meq/L
DBIL [3]: 0.002 mg/dL
GLC [3]: 175.6 mg/dL
IP [3]: 6.2 mg/dL
K [3]: 3.8 meq/L
LDH [3]: 190.4 IU/L
Na [3]: 142.6 meq/L
PL [3]: 169 mg/dL
RALB [3]: 3.4 g/dL
TBIL [3]: 0.018 mg/dL
TC [3]: 105 mg/dL
TG [3]: 79.6 mg/dL
TP [3]: 6.7 g/dL
gamma-GTP [3]: 1 IU/L
A/G [4]: 1
ALP [4]: 839.6 IU/L
ALT [4]: 34 IU/L
AST [4]: 44 IU/L
BUN [4]: 21.2 mg/dL
CRE [4]: 0.3 mg/dL
Ca [4]: 10.4 mg/dL
Cl [4]: 106.2 meq/L
DBIL [4]: 0.006 mg/dL
GLC [4]: 169.8 mg/dL
IP [4]: 5.3 mg/dL
K [4]: 3.9 meq/L
LDH [4]: 154.8 IU/L
Na [4]: 142.2 meq/L
PL [4]: 159.6 mg/dL
RALB [4]: 3.5 g/dL
TBIL [4]: 0.014 mg/dL
TC [4]: 103.2 mg/dL
TG [4]: 53.8 mg/dL
TP [4]: 6.9 g/dL
gamma-GTP [4]: 2 IU/L
TERMINAL_BW [5]: 196.1 g
APTT [5]: 20.2 s
Bas [5]: 0%
Eos [5]: 1%
Fbg [5]: 316.5 mg/dL
Hb [5]: 14.8 g/dL
Ht [5]: 41.3%
Lym [5]: 81.4%
MCH [5]: 21.8 pg
MCHC [5]: 35.9%
MCV [5]: 60.6 fL
Mono [5]: 2.2%
Neu [5]: 14.6%
PT [5]: 15.9 s
Plat [5]: 118.8 x10_4/uL
RBC [5]: 682.8 x10_4/ul
Ret [5]: 3.7%
WBC [5]: 59.4 x10_2/uL
A/G [5]: 1.2
ALP [5]: 1390.6 IU/L
ALT [5]: 34.8 IU/L
AST [5]: 42.2 IU/L
BUN [5]: 16.6 mg/dL
CRE [5]: 0.1 mg/dL
Ca [5]: 10.8 mg/dL
Cl [5]: 108.2 meq/L
DBIL [5]: 0.004 mg/dL
GLC [5]: 162 mg/dL
IP [5]: 7.1 mg/dL
K [5]: 3.9 meq/L
LDH [5]: 258.6 IU/L
Na [5]: 141.8 meq/L
PL [5]: 180.8 mg/dL
RALB [5]: 3.2 g/dL
TBIL [5]: 0.028 mg/dL
TC [5]: 103 mg/dL
TG [5]: 62.2 mg/dL
TP [5]: 5.9 g/dL
gamma-GTP [5]: 1 IU/L
TERMINAL_BW [6]: 231.6 g
TERMINAL_BW [7]: 234.9 g
TERMINAL_BW [8]: 244.7 g
APTT [6]: 20.6 s
Bas [6]: 0%
Eos [6]: 1%
Fbg [6]: 347.6 mg/dL
Hb [6]: 14.7 g/dL
Ht [6]: 40.3%
Lym [6]: 86.8%
MCH [6]: 21.7 pg
MCHC [6]: 36.4%
MCV [6]: 59.6 fL
Mono [6]: 2.2%
Neu [6]: 8.4%
PT [6]: 17.9 s
Plat [6]: 132.4 x10_4/uL
RBC [6]: 677 x10_4/ul
Ret [6]: 2.3%
WBC [6]: 73.6 x10_2/uL
APTT [7]: 20.8 s
Bas [7]: 0%
Eos [7]: 0.4%
Fbg [7]: 430.8 mg/dL
Hb [7]: 14.5 g/dL
Ht [7]: 40.9%
Lym [7]: 80.4%
MCH [7]: 20.4 pg
MCHC [7]: 35.4%
MCV [7]: 57.7 fL
Mono [7]: 2.6%
Neu [7]: 15%
PT [7]: 18.1 s
Plat [7]: 100.4 x10_4/uL
RBC [7]: 708.8 x10_4/ul
Ret [7]: 1.4%
WBC [7]: 65 x10_2/uL
APTT [8]: 19.9 s
Bas [8]: 0%
Eos [8]: 0.2%
Fbg [8]: 298.4 mg/dL
Hb [8]: 14.9 g/dL
Ht [8]: 40.7%
Lym [8]: 87.4%
MCH [8]: 19.6 pg
MCHC [8]: 36.7%
MCV [8]: 53.4 fL
Mono [8]: 1.8%
Neu [8]: 9.4%
PT [8]: 18.1 s
Plat [8]: 77.6 x10_4/uL
RBC [8]: 761.4 x10_4/ul
Ret [8]: 0.7%
WBC [8]: 79.7 x10_2/uL
A/G [6]: 1.1
ALP [6]: 1556.6 IU/L
ALT [6]: 30.2 IU/L
AST [6]: 32.4 IU/L
BUN [6]: 18 mg/dL
CRE [6]: 0.2 mg/dL
Ca [6]: 11.1 mg/dL
Cl [6]: 107.2 meq/L
DBIL [6]: 0.004 mg/dL
GLC [6]: 161.4 mg/dL
IP [6]: 7 mg/dL
K [6]: 4.1 meq/L
LDH [6]: 221.8 IU/L
Na [6]: 141.4 meq/L
PL [6]: 203.2 mg/dL
RALB [6]: 3.5 g/dL
TBIL [6]: 0.01 mg/dL
TC [6]: 120 mg/dL
TG [6]: 89.4 mg/dL
TP [6]: 6.7 g/dL
gamma-GTP [6]: 1.8 IU/L
A/G [7]: 1
ALP [7]: 984.4 IU/L
ALT [7]: 30.8 IU/L
AST [7]: 26.6 IU/L
BUN [7]: 21.6 mg/dL
CRE [7]: 0.3 mg/dL
Ca [7]: 11.1 mg/dL
Cl [7]: 106.4 meq/L
DBIL [7]: 0.006 mg/dL
GLC [7]: 164.8 mg/dL
IP [7]: 6.3 mg/dL
K [7]: 4 meq/L
LDH [7]: 182.6 IU/L
Na [7]: 142.6 meq/L
PL [7]: 201.4 mg/dL
RALB [7]: 3.6 g/dL
TBIL [7]: 0.034 mg/dL
TC [7]: 140.2 mg/dL
TG [7]: 44.4 mg/dL
TP [7]: 7.2 g/dL
gamma-GTP [7]: 2 IU/L
A/G [8]: 1.1
ALP [8]: 910 IU/L
ALT [8]: 33.4 IU/L
AST [8]: 25.8 IU/L
BUN [8]: 24.8 mg/dL
CRE [8]: 0.3 mg/dL
Ca [8]: 10.8 mg/dL
Cl [8]: 105.6 meq/L
DBIL [8]: 0.028 mg/dL
GLC [8]: 166.6 mg/dL
IP [8]: 5.6 mg/dL
K [8]: 3.5 meq/L
LDH [8]: 151.2 IU/L
Na [8]: 143.8 meq/L
PL [8]: 167.6 mg/dL
RALB [8]: 3.7 g/dL
TBIL [8]: 0.048 mg/dL
TC [8]: 110 mg/dL
TG [8]: 42 mg/dL
TP [8]: 7.2 g/dL
gamma-GTP [8]: 2.6 IU/L

— ChEMBL document CHEMBL3885861, “Open TG-GATES”
